Assay type in all cases: in vivo, Long Evans rat
The test system of experiment [1] is GFAP, HNE, 8-OHdG, ChAT immunoreactivity. The experiment is described as follows: ic-STZ ± PPAR agonist: immunohistochemical staining of brain. As to conditions: for ChAT immunoreactivity: basal forebrain region; for 8-OHdG immunoreactivity / GFAP immunoreactivity / HNE immunoreactivity: temporal cortex. The method, then: (§1) Histopathological and Immunohistochemical Staining Studies: Whole fresh brains were immersion fixed in Histofix (Amresco, Solon, Ohio) and then sectioned in the coronal plane along standardized landmarks, embedded in paraffin, and processed for histopathological studies. In addition, fresh brains were sectioned in the coronal plane to obtain a ˜3 mm thick slice that flanked the infundibulum. The 3-mm brain slice was snap frozen between two slabs of dry ice, and then stored at −80° C. for later RNA and protein studies. The residual tissue was immersion fixed and processed for histopathological studies. […] As negative controls for the immunostaining reactions, either the primary antibody was omitted or non-relevant monoclonal antibody to Hepatitis B virus was used in place of the relevant antibody. Immunoreactivity was detected using the avidin-biotin horseradish peroxidase complex method (S. M. de la Monte, T. Luong, T. R. Neely, D. Robinson, J. R. Wands. Mitochondrial DNA damage as a mechanism of cell loss in Alzheimer's disease. Lab Invest 80(8) (2000), 1323-35). All sections were examined under code.
Increased levels of 8-OHdG and 4-hydroxynonenol (HNE) have been detected in brains with AD (W. R. Markesbery, J. M. Carney. Oxidative alterations in Alzheimer's disease. Brain Pathol 9(1) (1999), 133-46, L. M. Sayre, D. A. Zelasko, P. L. Harris, G. Perry, R. G. Salomon, M. A. Smith. 4-Hydroxynonenal-derived advanced lipid peroxidation end products are increased in Alzheimer's disease. J Neurochem 68(5) (1997), 2092-7). […] In addition, it was of interest to relate indices of oxidative stress to GFAP immunoreactivity, which reflects astrocytic responses to tissue injury. Paraffin-embedded histological sections of brain were immunostained to detect GFAP, 8-OHdG or HNE using the ABC method with DAB as the chromogen (brown precipitate) and light hematoxylin as the counterstain.

The target of a further experiment is T1, IGF-I receptor (Rattus norvegicus, UniProt P24062).
T1 construct: from tissue; host or cells: rat brain (temporal lobe)
T1 sequence (P24062 31-737 limits assumed): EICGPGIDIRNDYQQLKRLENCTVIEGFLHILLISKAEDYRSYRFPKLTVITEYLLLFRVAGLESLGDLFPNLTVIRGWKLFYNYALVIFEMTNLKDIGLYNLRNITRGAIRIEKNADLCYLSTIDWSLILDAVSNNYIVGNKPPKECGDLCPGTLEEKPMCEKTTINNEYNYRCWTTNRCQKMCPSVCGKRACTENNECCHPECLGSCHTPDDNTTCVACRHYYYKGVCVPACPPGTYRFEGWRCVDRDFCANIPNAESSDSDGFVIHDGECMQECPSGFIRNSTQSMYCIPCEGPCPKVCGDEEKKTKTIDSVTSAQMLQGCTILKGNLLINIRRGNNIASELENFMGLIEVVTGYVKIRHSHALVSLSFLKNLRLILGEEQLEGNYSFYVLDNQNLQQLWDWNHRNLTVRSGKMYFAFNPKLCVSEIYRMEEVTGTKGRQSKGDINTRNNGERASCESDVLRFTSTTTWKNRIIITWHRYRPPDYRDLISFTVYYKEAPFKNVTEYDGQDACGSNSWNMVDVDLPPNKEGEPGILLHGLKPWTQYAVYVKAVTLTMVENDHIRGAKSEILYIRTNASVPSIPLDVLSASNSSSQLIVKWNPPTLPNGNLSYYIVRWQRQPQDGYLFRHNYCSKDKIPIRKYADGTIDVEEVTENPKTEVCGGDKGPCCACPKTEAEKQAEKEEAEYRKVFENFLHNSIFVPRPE
T1 sequence (P24062 742-1370 limits assumed): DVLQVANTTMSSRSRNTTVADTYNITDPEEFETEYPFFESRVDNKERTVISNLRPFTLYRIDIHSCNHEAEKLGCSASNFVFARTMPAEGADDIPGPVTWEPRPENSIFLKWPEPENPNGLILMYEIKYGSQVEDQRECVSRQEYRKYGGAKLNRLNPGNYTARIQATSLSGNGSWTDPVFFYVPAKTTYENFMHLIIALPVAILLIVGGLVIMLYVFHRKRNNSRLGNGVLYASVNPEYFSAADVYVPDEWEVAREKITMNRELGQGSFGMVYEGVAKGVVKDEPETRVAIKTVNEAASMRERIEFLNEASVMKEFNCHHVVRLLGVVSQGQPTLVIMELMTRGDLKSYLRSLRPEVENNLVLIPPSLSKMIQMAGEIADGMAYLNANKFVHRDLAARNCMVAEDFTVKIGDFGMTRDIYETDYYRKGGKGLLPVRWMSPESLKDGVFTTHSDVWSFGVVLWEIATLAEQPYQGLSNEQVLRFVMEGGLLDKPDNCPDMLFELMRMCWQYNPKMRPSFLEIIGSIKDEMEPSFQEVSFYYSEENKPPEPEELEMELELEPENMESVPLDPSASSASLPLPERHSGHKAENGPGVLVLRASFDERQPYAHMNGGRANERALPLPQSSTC
The experiment is described as follows: ic-STZ ± PPAR agonist: equilibrium and saturation binding to IGF-I receptors in the brain. As to conditions: for BMAX, IGF-1 receptor saturation binding in brains of treated rats: [125I]-IGF-I tracer, pooled brain membranes, 4 weeks after ic-STZ ± IP PPAR agonist; for IGF-I receptor binding: cerebellum. The method, then:
(§2) On the same day, sub-sets of the ic-STZ group were given a single intra-peritoneal injection of vehicle (saline), or a PPAR-α (GW7647; 25 ug/Kg), PPAR-δ (L-165,041; 2 μg/Kg), or PPAR-γ (F-L-Leu; 20 μg/Kg) activator (CalBiochem, Carlsbad, Calif.). […] In addition, at 4 weeks of age, memory and learning were evaluated using a Morris Water Maze (R. W. Hickey, M. Akino, S. Strausbaugh, G. M. De Courten-Myers. Use of the Morris water maze and acoustic startle chamber to evaluate neurologic injury after asphyxial arrest in rats. Pediatr Res 39(1) (1996), 77-84). The procedures and use of rats in these experiments were approved by the Lifespan-Rhode Island Hospital IACUC committee.
(§3) Membrane protein extracted from fresh frozen brain tissue was used for competitive equilibrium and saturation binding assays. For total binding in equilibrium binding assays, duplicate samples were incubated in 100 μl reactions containing binding buffer (100 mM HEPES, pH 8.0, 118 mM NaCl, 1.2 mM MgSO4, 8.8 mM dextrose, 5 mM KCl, 1% bovine serum albumin) and 100 nCi/ml of [^125I] […] To measure total binding in saturation binding assays, samples from 8-12 brains per group were pooled in equal proportions, and duplicate samples were incubated in 100 μl reactions containing binding buffer and 0.0031 to 1 μCi/ml of [^125I] […] To detect non-specific binding in the equilibrium and saturation binding assays, duplicate reactions were incubated with the same concentrations of radiolabeled tracer plus 0.1 μM unlabeled (cold) competitive ligand. After 16 hours incubation at 4° C., bound radiolabeled tracer was precipitated with bovine gamma globulin and polyethylene glycol 8000. The precipitate (bound ligand) and supernatant (free ligand) fractions were counted in an LKB CompuGamma CS Gamma counter. Specific binding was calculated by subtracting fmols of non-specific binding, i.e. amount bound in the presence of excess cold ligand, from total fmols bound in the absence of unlabeled competitive ligand. GraphPad Prism 4 software (San Diego, Calif.) was used to calculate saturation binding (BMAX) and binding affinity (Kd) for each data set.

Another experiment deals with T2, IGF-II receptor (Rattus norvegicus, UniProt G3V824).
T2 construct: from tissue; host or cells: rat brain (temporal lobe)
T2 sequence (G3V824 36-2481): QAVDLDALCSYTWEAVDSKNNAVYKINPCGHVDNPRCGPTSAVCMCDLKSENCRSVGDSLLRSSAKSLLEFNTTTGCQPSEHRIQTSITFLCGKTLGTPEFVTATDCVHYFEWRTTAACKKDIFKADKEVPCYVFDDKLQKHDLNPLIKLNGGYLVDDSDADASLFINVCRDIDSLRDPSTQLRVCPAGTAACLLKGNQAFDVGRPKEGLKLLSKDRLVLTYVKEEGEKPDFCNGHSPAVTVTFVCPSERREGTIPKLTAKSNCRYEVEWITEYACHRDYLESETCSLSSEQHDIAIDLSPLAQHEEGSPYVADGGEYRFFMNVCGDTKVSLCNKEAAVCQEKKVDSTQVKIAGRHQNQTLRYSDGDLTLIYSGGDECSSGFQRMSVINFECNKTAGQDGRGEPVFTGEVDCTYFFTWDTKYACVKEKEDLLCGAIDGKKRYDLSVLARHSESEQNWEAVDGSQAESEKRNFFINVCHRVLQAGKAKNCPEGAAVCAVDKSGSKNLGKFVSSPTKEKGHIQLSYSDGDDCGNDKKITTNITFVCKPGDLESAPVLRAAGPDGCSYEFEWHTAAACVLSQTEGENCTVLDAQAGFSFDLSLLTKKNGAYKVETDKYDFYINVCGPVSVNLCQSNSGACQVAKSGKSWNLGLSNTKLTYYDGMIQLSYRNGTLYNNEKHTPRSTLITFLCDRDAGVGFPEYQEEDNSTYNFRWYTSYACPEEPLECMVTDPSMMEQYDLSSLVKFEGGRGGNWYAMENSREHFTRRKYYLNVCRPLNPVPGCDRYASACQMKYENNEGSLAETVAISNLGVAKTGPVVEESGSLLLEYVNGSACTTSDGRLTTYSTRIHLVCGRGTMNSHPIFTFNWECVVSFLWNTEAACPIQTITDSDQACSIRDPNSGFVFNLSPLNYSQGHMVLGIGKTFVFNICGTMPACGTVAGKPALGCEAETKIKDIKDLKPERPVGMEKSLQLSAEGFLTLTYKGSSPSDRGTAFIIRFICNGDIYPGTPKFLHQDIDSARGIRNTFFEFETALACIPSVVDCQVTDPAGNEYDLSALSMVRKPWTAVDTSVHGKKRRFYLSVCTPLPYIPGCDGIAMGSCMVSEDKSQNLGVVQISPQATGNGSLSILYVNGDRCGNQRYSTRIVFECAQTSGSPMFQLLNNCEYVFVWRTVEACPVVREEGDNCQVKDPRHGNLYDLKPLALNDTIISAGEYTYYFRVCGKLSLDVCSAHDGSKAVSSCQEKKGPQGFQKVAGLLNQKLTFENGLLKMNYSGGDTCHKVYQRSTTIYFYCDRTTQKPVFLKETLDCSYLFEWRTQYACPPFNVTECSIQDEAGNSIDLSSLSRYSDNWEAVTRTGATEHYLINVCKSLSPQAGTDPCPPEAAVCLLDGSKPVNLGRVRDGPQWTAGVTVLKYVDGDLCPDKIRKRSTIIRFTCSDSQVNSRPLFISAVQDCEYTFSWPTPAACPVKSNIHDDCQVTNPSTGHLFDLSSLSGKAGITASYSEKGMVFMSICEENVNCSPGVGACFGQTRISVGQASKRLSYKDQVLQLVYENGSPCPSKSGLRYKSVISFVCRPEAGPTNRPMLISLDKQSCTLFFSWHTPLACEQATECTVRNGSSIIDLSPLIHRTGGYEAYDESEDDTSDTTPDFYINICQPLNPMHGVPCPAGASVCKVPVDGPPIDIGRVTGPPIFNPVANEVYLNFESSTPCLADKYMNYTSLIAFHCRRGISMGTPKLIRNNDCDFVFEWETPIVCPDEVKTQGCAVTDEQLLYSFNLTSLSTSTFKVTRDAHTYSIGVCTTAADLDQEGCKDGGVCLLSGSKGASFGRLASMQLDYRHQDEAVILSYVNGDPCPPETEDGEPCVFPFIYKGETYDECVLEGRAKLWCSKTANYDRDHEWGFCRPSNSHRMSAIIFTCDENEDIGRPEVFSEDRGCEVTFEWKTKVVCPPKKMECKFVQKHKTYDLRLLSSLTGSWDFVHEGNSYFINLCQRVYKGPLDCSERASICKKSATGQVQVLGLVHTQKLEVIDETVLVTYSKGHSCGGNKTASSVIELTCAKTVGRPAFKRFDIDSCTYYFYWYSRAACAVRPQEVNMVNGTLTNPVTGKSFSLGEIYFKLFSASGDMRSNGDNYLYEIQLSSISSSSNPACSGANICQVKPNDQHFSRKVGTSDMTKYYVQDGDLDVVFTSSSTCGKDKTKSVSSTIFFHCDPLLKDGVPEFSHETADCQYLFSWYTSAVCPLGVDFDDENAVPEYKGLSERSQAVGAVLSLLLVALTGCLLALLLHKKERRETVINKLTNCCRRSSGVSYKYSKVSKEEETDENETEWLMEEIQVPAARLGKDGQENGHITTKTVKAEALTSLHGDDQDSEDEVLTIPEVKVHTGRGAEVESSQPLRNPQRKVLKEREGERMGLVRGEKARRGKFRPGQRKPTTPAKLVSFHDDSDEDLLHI
The experiment is described as follows: ic-STZ ± PPAR agonist: equilibrium and saturation binding to IGF-II receptors in the brain. The conditions noted are these: for BMAX, IGF-II receptor saturation binding in brains of treated rats: [125I]-IGF-II tracer, pooled brain membranes, 4 weeks after ic-STZ ± IP PPAR agonist. The method, then:
as §2, §3

Experiment [2] has as its system ic-STZ-induced neurodegeneration. The experiment is described as follows: ic-STZ ± PPAR agonist: brain histopathology (H&E). The conditions noted are these: for preservation of cerebellar cortical architecture (H&E) / preservation of hippocampi and temporal lobes (H&E): 4 weeks after ic-STZ ± single IP PPAR agonist. The method, then: In addition, at 4 weeks of age, memory and learning were evaluated using a Morris Water Maze (R. W. Hickey, M. Akino, S. Strausbaugh, G. M. De Courten-Myers. Use of the Morris water maze and acoustic startle chamber to evaluate neurologic injury after asphyxial arrest in rats. Pediatr Res 39(1) (1996), 77-84). The procedures and use of rats in these experiments were approved by the Lifespan-Rhode Island Hospital IACUC committee.
as §1

Entries after “also recorded” stand apart in the source; their conditions may differ.

In the case of `CC(C)(Sc1ccc(CCN(CCCCC2CCCCC2)C(=O)NC2CCCCC2)cc1)C(=O)O` [PPAR-α agonist, GW7647], in experiment [1], the ChAT immunoreactivity result was “variably increased”, the 8-OHdG immunoreactivity result is on record as “conspicuously reduced”, the GFAP immunoreactivity entry is “no clear effect” and the HNE immunoreactivity entry is “no clear effect”. Moreover, on IGF-I receptor, the “BMAX, IGF-1 receptor saturation binding in brains of treated rats” value (from here on “BMAX, IGF-1 receptor saturation binding”) is 0.6361 fmol/mg protein. Further, the “BMAX, IGF-II receptor saturation binding in brains of treated rats” value (“BMAX, IGF-II receptor saturation binding” for short) at IGF-II receptor is 7.291 fmol/mg protein. Also, in experiment [2], the “preservation of cerebellar cortical architecture (H&E)” value is “moderately effective; also recorded: markedly reduced”; the “preservation of hippocampi and temporal lobes (H&E)” value is “less effective than the PPAR-δ agonist”.
`CC(C)C[C@H](NC(=O)OCC1c2ccccc2-c2ccccc21)C(=O)O` [PPAR-γ agonist, F-L-Leu]: in experiment [1], the ChAT immunoreactivity result was “variably increased”, the 8-OHdG immunoreactivity entry is “conspicuously reduced” and the HNE immunoreactivity entry was “moderately reduced”. For the same compound, at IGF-I receptor, the “BMAX, IGF-1 receptor saturation binding” value worked out at 3.123 fmol/mg protein and the IGF-I receptor binding entry is “significantly increased”. The “BMAX for IGF-I receptor (in words) vs ic-STZ group” value at IGF-I receptor (rat, in vivo) is “increased”. For the same compound, on IGF-II receptor, the “BMAX, IGF-II receptor saturation binding” value was determined as 9.223 fmol/mg protein. Moreover, in experiment [2], the “preservation of cerebellar cortical architecture (H&E)” value was “ineffective”; the “preservation of hippocampi and temporal lobes (H&E)” value is “least effective”.
As to `CCCc1c(OCCCOc2ccc(OCC(=O)O)cc2)ccc(C(C)=O)c1O` [PPAR-δ agonist, L-165,041], in experiment [1], the ChAT immunoreactivity entry is listed as “variably increased”, the 8-OHdG immunoreactivity result is on record as “conspicuously reduced”, the GFAP immunoreactivity entry is “conspicuously reduced” and the HNE immunoreactivity result is recorded as “conspicuously reduced”. At IGF-I receptor, the “BMAX, IGF-1 receptor saturation binding” value is given as 0.7399 fmol/mg protein and the IGF-I receptor binding result is given as “significantly increased”. For the same compound, on IGF-II receptor, the “BMAX, IGF-II receptor saturation binding” value is listed as 20.22 fmol/mg protein. Besides, the IGF-II receptor binding entry at IGF-II receptor (cerebellum) is “significantly increased”. The “BMAX for IGF-II receptor (in words) vs ic-STZ group” value on IGF-II receptor (rat, in vivo) is reported as “increased”. Besides, in experiment [2], the “preservation of cerebellar cortical architecture (H&E)” value was “moderately effective; also recorded: markedly reduced”; the “preservation of hippocampi and temporal lobes (H&E)” value is “most striking therapeutic rescue”. Also, in experiment [2] (FIG. 25A-E, control 30%), the “share of temporal cortex thickness spanned by the horizontal scale bar” value turned out to be 30%.
With `CN(N=O)C(=O)NC1C(O)OC(CO)C(O)C1O` (centres unmarked) [STZ], in experiment [1], the ChAT immunoreactivity entry is “markedly reduced”. In addition, the “BMAX, IGF-1 receptor saturation binding” value on IGF-I receptor is given as 1.204 fmol/mg protein. Also, the “binding to IGF-I receptors” value on IGF-I receptor (hypothalamus or cerebellum) is reported as “not in the hypothalamus or cerebellum”; on IGF-I receptor (temporal lobe), “significantly reduced”. The “BMAX, IGF-II receptor saturation binding” value at IGF-II receptor worked out at 6.431 fmol/mg protein. For the same compound, on IGF-II receptor (temporal lobe and cerebellum), the “binding to IGF-II receptors” value was “reduced”.

Values taken from patent US7833513B2, “Treatment of Alzheimer's Disease” (Rhode Island Hospital, priority 2004, dated 2010).
